Measured values reported in ChEMBL document CHEMBL1201862, “PubChem BioAssay data set” (2004).
Activity calls are given as the source filed them.

Tests used:
[1] = system: Streptococcus sp. 'group A'; experiment: growth inhibition of control SK(-) GAS strain, dose response, counter-screen for streptokinase expression inhibitor project, luminescence, kanamycin, BacTiterGlo, confirmation (AID 1900); format: functional, organism-based
Streptococcus = experiment: Group A Streptococcus viability loss, dose response, counter-screen for streptokinase expression inhibitor project, luminescence, BacTiterGlo (AID 1915); format: functional, organism-based;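 further: potency for reduction of bacterial viability or growth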
[2] = inhibitors of intracellular T. cruzi replication, confirmation, NIH3T3 host cells, beta-gal luminescence (AID 2044); format: functional, cell-based;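 further: intracellular parasites grown in NIH/3T3 mouse fibroblasts as host cells; luminescent beta-galactosidase reporter signal from transgenic T. cruzi replicating inside host cells; inhibitors lower the luminescence signal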
[3] = NIH-3T3 fibroblast cytotoxicity, dose response, cytotoxicity control, cell-based, fluorescence, Alamar Blue, secondary assay (AID 2327); format: functional;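 further: NIH-3T3 mouse fibroblasts cultured with fluconazole at 8 µg/mL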
[4] = cytotoxicity toward DRD oncogenic fibroblasts, dose response, cell-based, non-viral oncogenic, luminescence (AID 1934); format: functional; conditions: Homo sapiens
Aminopeptidase N = target: T1, Aminopeptidase N (Plasmodium falciparum FcB1/Columbia, UniProt O96935); experiment: P. falciparum M1AAP inhibitors, biochemical, fluorogenic H-Leu-NHMec substrate, 1536-well (AID 1445); parameters: species or system Plasmodium falciparum 3D7, 3D7
T1 sequence (O96935 whole entry): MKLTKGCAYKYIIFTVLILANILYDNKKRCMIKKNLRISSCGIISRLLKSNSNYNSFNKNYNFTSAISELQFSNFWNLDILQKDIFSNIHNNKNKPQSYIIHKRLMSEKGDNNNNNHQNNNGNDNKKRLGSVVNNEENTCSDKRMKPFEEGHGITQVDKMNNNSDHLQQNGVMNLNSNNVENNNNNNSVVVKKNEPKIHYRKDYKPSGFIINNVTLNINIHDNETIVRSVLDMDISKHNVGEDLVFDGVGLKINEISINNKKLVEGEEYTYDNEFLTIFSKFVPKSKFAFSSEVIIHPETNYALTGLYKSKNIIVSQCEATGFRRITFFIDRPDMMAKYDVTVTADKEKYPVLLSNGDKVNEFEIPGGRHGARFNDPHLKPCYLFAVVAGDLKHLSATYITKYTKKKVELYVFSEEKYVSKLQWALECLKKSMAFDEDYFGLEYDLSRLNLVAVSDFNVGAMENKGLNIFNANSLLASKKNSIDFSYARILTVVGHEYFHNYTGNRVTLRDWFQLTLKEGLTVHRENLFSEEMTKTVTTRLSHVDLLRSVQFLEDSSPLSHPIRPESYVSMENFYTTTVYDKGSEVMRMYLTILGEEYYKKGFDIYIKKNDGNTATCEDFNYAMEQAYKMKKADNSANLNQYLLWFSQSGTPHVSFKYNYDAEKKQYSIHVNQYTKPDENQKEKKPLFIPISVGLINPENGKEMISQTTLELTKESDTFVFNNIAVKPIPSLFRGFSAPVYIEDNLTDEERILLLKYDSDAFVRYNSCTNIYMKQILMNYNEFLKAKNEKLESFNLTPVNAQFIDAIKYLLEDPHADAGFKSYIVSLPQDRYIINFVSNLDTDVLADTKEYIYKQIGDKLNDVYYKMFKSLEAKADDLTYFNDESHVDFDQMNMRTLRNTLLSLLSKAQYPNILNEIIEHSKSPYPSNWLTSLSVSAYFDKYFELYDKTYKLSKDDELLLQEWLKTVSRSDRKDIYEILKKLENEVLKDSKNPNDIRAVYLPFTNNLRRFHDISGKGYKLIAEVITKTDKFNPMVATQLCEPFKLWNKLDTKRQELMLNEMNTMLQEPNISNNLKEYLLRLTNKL

[5] = target: T2, Calpain-2 catalytic subunit (Sus scrofa, UniProt P43367); experiment: pig calpain II inhibitor potency, dose response, biochemical, fluorogenic peptide substrate (AID 1420); format: functional
T2 sequence (P43367 whole entry): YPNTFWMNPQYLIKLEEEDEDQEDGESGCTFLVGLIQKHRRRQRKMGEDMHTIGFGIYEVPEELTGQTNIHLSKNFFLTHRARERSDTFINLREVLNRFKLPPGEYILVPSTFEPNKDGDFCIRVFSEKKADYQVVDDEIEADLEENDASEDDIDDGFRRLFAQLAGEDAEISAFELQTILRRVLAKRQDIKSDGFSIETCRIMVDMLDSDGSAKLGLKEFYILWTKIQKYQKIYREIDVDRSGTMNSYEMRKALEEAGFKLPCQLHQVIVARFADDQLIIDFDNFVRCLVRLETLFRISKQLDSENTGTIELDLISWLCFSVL

BJ [6] = experiment: cells; format: functional, cell-based; conditions: Homo sapiens
[7] = cytotoxicity toward NIH3T3 fibroblasts, dose response, counter-screen, cell-based, ATP luminescence, mouse fibroblasts (AID 2010); format: functional;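 further: cells exposed to compound for about 90 hours before reading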
[8] = human group III sPLA2 inhibitors, dose response, biochemical, QFRET, IC50 (AID 743457);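 further: green fluorescence rise as the enzyme cleaves BODIPY PC-A2 in liposomes; potency for inhibition of the enzyme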
BJ [9] = experiment: cytotoxicity toward BJ-TERT-LT-ST fibroblasts, dose response, cell-based, RAS-independent, luminescence (AID 1935); format: functional; conditions: Homo sapiens;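 further: BJ fibroblasts immortalized with TERT plus LT and ST oncogenes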
[10] = inhibitors of firefly luciferase expression or activity, dose response, H4 neuroglioma cells, luminescence (AID 1990); format: functional, cell-based
[11] = inhibitors of SNCA 5'UTR-driven reporter translation, confirmation, H4 neuroglioma cells, luminescence (AID 1988); format: functional, cell-based
[12] = C. albicans growth with fluconazole, confirmation, fluorescence, retest (AID 2467); format: functional, cell-based
cells [13] = format: functional, cell-based
cells [14] = format: functional, cell-based; remark: listed apart in the source
[15] = Luminescence Cell-Based Dose Response HTS to Identify Inhibitors of 5'UTR Stem-Loop Driven Prion Protein mRNA Translation in H4 Neuroglioblastoma Cells. [Related pubchem assays: 1827 (Project Summary), 1813 (Primary HTS)]; format: functional
BJ [16] = experiment: cytotoxicity toward BJ-TERT fibroblasts, dose response, cell-based, RAS-independent, luminescence (AID 1933); format: functional; conditions: Homo sapiens
[17] = CEM21 lymphoblast cell cytotoxicity, dose response, cytotoxicity control for viral fusion inhibitor project, CellTiter-Glo luminescence, cherry-picked (AID 652042); format: functional, cell-based;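 further: potency for signal decrease meaning cytotoxicity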
[18] = target: T3, Apoptotic protease-activating factor 1 (Homo sapiens, UniProt O14727); format: functional
T3 sequence (O14727 whole entry): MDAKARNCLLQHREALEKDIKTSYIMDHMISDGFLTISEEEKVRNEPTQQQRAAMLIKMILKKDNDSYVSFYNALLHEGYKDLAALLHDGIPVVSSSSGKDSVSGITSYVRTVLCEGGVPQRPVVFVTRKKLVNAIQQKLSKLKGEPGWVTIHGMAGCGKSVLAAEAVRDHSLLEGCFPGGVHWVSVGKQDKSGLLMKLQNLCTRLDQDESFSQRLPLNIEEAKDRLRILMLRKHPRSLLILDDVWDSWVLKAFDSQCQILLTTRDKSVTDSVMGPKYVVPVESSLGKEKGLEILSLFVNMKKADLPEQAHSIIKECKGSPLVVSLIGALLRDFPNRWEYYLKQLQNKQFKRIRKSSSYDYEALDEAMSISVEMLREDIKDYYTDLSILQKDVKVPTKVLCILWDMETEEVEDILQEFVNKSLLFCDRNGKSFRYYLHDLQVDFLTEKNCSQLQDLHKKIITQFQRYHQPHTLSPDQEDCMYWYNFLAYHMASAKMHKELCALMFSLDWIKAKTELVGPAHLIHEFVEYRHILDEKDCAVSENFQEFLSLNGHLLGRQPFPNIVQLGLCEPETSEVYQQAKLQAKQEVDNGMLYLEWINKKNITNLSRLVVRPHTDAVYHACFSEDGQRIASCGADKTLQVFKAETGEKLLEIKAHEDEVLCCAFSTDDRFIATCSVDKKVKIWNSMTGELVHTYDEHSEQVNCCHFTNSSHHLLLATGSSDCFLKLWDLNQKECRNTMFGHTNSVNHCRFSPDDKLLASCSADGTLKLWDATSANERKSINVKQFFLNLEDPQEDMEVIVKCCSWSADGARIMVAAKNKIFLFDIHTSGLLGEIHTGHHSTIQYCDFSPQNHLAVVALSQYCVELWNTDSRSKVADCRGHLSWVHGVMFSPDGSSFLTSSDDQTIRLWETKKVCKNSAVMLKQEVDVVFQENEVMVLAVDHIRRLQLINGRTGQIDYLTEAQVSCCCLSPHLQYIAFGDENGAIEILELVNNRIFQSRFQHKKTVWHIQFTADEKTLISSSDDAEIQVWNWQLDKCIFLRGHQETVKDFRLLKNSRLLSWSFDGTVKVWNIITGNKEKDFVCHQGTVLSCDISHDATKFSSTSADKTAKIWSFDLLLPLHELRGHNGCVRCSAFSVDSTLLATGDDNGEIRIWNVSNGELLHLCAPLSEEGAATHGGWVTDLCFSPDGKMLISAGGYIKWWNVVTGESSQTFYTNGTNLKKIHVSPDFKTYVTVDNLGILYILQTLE

[19] = HEK293T cytotoxicity, dose response, cytotoxicity control for miR-122 modulator project, cell-based, inhibitor set, cherry-pick, set 2 (AID 720697); format: functional
[20] = inhibitors of HIV Env-driven cell fusion, dose response, cherry-pick (AID 652057); format: functional, cell-based
Insulin-degrading enzyme [21] = target: T4, Insulin-degrading enzyme (Homo sapiens, UniProt P14735); experiment: activators of endogenous IDE in HEK cells, dose response, cell-based, fluorescence polarization (AID 588439); format: functional
T4 sequence (P14735 whole entry): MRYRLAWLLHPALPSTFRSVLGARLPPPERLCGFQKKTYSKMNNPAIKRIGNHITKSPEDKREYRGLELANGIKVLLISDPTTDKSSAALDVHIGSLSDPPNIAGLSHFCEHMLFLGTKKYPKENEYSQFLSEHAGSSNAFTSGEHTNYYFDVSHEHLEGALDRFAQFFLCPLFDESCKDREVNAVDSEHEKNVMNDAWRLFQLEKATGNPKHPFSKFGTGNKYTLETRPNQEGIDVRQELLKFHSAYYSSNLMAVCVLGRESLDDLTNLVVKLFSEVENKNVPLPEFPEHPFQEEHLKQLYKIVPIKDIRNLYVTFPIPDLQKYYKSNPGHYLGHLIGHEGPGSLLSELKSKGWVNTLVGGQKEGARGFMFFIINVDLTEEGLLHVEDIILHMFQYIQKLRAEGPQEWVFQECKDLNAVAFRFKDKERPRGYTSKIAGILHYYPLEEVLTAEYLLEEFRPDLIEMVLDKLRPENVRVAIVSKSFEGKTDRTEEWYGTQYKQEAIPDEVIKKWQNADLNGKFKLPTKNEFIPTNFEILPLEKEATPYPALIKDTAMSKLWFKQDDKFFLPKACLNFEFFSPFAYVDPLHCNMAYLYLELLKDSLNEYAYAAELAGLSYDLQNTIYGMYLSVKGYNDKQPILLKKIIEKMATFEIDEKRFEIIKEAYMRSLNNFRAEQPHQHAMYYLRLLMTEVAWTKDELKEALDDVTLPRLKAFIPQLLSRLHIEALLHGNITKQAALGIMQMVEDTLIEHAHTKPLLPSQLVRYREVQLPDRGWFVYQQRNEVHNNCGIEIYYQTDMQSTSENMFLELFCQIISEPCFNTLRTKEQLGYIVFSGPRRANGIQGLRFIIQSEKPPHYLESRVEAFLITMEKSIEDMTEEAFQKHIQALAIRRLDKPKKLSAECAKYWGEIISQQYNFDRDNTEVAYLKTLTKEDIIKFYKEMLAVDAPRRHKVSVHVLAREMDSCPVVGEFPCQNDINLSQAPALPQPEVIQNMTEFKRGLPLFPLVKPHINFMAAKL

[22] = off-target signal loss in HeLa-CEM21 co-culture – HeLa F-luc CTL cells, cherry-picked, counter-screen for HIV-1 Env fusion inhibitor project, dose response (AID 652040); format: functional, cell-based;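 further: potency for signal decrease marking cytotoxic or nonspecific inhibition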
[23] = miR-122 activators in hepatoma reporter cells, dose response, cell-based, Huh7 psiCHECK-miR122, Renilla luciferase, cherry-picked (AID 651956); format: functional;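 further: huh7 hepatoma cells stably carrying a psiCHECK-2 miR-122 sensor plasmid; renilla luciferase signal reporting endogenous miR-122 activity after 48 h compound exposure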
[24] = inhibitors of clade B AD8 Env fusion, dose response, cell-based, cherry-pick (AID 652062); format: functional;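 further: luciferase signal from cell-cell fusion driven by HIV-1 clade B AD8 Env; potency is for inhibitors of fusion seen as a drop in luminescence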
[25] = HEK293T cytotoxicity, dose response, cytotoxicity control for miR-122 modulator project, cell-based, activator set, cherry-pick (AID 720690); format: functional;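 further: HEK293T human cells scored for general mammalian cytotoxicity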
HEK293 [26] = experiment: HEK cell cytotoxicity by LDH release, dose response, cytotoxicity control for IDE activator project, fluorescence, HEK cells (AID 588440); format: functional, cell-based; conditions: Homo sapiens;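 further: cytotoxicity by LDH release measuring loss of membrane integrity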
[27] = ZM109 Env clade C HIV-1 fusion inhibitors, dose response, HeLa effector, CEM target cells, luciferase, cherry-pick (AID 652058); format: functional, cell-based
Insulin-degrading enzyme [28] = target: T4, Insulin-degrading enzyme; experiment: activators of recombinant IDE enzyme, dose response, counter-screen for IDE activator project, biochemical, fluorescence polarization (AID 588681)
[29] = target: T5, Ubiquitin-conjugating enzyme E2 N (Homo sapiens, UniProt P61088); format: functional;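 further: Dose-response confirmation in a TR-FRET assay detecting UBC13-driven polyubiquitin chain formation, inhibition measured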
T5 sequence (P61088 whole entry): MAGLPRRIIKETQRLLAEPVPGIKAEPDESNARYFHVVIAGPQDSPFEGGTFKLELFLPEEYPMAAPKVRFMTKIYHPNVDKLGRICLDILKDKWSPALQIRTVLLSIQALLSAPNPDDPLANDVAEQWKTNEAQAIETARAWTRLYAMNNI

HEK293 [30] = experiment: optical interference in Abeta FP readout, dose response, artefact control for IDE activator project, biochemical, fluorescence polarization (AID 588442); format: functional, cell-based; conditions: Homo sapiens

Oc1ccccc1N=Nc1ccccc1O
active: EC50 [1] 0.6 µM | EC50 (Streptococcus) 8.99 µM | EC50 [2] 1.3 µM | EC50 [4] 1.15 µM | IC50 (Aminopeptidase N) 22.1 µM | EC50 [7] 12.1 µM | EC50 [10] 14.7 µM | EC50 [11] 0.13 µM | EC50 [12] 1.38 µM | EC50 (cells [13]) 2.06 µM | EC50 (cells [14]) 12.7 µM | EC50 (BJ [16]) 0.626 µM
inactive: EC50 [3] > 160 µM | IC50 [8] > 122 µM
> 50 µM (not active): IC50 [5]
> 120 µM (not active): EC50 [15]
inconclusive: EC50 (BJ [6]) 2.3 µM | EC50 (BJ [9]) 3.31 µM

FC(F)(F)c1cc(CCN2CCNC[C@@H]2CC2CCCCC2)cc(C(F)(F)F)c1
inactive: EC50 (Insulin-degrading enzyme [21]) 17.6 µM | EC50 (Insulin-degrading enzyme [28]) > 54.7 µM | IC50 [29] > 20 µM | EC50 (HEK293 [30]) > 54.7 µM
active: AC50 [17] 7.74 µM | IC50 [18] 62.5 µM | AC50 [19] 8.59 µM | AC50 [20] 7.14 µM | AC50 [22] 11.2 µM | AC50 [23] 23.8 µM | AC50 [24] 17.6 µM | AC50 [25] 7.47 µM | IC50 (HEK293 [26]) 9.68 µM | AC50 [27] 11.5 µM
